Experimental data taken from patent US20260026529A1, “MATERIALS AND METHODS FOR THE MANUFACTURE OF AN ANIMAL FEED” (In the Bowl Animal Health, Inc., priority 2023, published 2026).
Structures can show the parent of a compound that is named as a salt. Marks after values point to notes of the source that are not given here.

Columns and labels:
[1] = Solubility of active ingredients in liquid carriers, transmissivity measurement with a crystallizer multi-reactor
Description: To determine the solubility of various active ingredients that could be incorporated into pet food, each active ingredient may be evaluated in a temperature dependent manner using a crystallizer multi-reactor with transmissivity measurements.
Carrier of interest may be prepared as needed and specific active ingredients may be added to the solvents to form mixtures of the solvent and active. […] If mixing and/or heating fails to provide visual evidence that an active ingredient dissolves in the test solvent carrier no further solubility testing of the active ingredient with the test carrier can be conducted.
For active ingredients that appear to at least partially dissolve in a given carrier, the mixtures can be analyzed by transmissivity measurement using a crystallizer multi-reactor. Prior to the transmissivity measurement using a crystallizer multi-reactor with transmissivity capability, carriers may be prepared, as needed, and subsequently tested using a heating cycle over a range of temperatures. The transmissivity data can be recorded over the temperature ranges and used as a blank or reference in subsequent transmissivity measurements.
Typically, initial samples including the active ingredient of interest and the test carrier are not readily soluble at room temperature and may register low percent transmissivity along with visible observations of insolubilized material. When resulting admixtures are heated at a specific heating rate, the percent transmissivity increases as the active ingredient is solubilized. When the solids are completely dissolved, the transmissivity is measured as 100%. When the resulting heated admixture is subsequently cooled, solids may precipitate at a given temperature and cooling rate, which results in a decrease in percent transmissivity. The temperature and time at which precipitation occurs with a specific admixture provides additional information regarding solubility and the combination of parameters needed for selection to prepare feed with the active ingredient of interest.
Carriers include, refined chicken fat, refined chicken fat including lecithin, refined chicken fat including Tween80, refined chicken fat including triacetin, and triacetin may be used as carrier systems over a range of temperatures, ramp rates, stirring rates, and cooling cycles to evaluate stability.
Admixture experiments may be performed with active ingredients including, e.g., mivorilaner, sarolaner, lotilaner, fluralaner, afoxolaner, spinosad, pyrantel, praziquantel, fenbendazole, diethylcarbamazine, moxidectin, gabapentin and metformin in combination with different test carriers using the methodology described herein. “Apparent solubility” is a term used herein to denote that the admixture may be a true solution, i.e., an admixture in which the active ingredient completely dissolves into the carrier liquid. However, the term “apparent solubility” also can include suspensions and emulsions, for example, which resemble a true solution but are not.

[2] = Solubility of mivorilaner in carriers under isothermal conditions; format: physicochemical
Method: The solubility of mivorilaner in a number of carriers was also measured under isothermal conditions.

Row | SMILES | Measured Concentration ([1]; carrier CF, Up to 60 ° C.) [mg/g] | Measured Concentration ([1]; carrier Triacetin, 20-22 ° C.) [mg/g] | Time to Achieve Apparent Solubility ([1]; carrier CF, Up to 60 ° C.) | Time to Achieve Apparent Solubility ([1]; carrier Chicken Fat + Tween 80, 2.0 mg/g, 40 ° C.) | Effect of the presence of lecithin on solubility ([1]; chicken fat vs chicken fat including 4% (w/w) lecithin, 2-16 mg/g, 0.1° C./minute, 39° C. to 60° C., FIG. 5) | Solubility in a combination of chicken fat and lecithin ([2]; chicken fat and lecithin) | Solubility observation, chicken fat only ([2]; chicken fat only, all experiments)
1 | CN(C)C(=N)N=C(N)N [Metformin-HCI, Metformin HCl] | 0 | <1 |  |  |  |  | 
2 | NCC1(CC(=O)O)CCCCC1 [Gabapentin] | 0 | <1 | Insoluble |  |  |  | 
3 | O=C(CNC(=O)c1sc(C2=NO[C@@](c3cc(Cl)c(F)c(Cl)c3)(C(F)(F)F)C2)c2c1CCC2)NCC(F)F [Mivorilaner] |  |  |  | 1.5** hours | increased mivorilaner solubility | soluble over a wide range of concentrations and temperatures | visible detection of agglomerates was noted in all experiments
